Laboratory results: ChEMBL document CHEMBL2321781, “Synthesis and in vitro antimalarial testing of neocryptolepines: SAR study for improved activity by introduction and modifications of side chains at C2 and C11 on indolo[2,3-b]quinolines” (J Med Chem, 2013)
pIC50: −log10 of the molar value. Calls of active or inactive are those of the source. No cut-off for these calls is given here.

Tests used:
[1] = Toxicity against rat L6 cells after 72 hrs by Alamar blue assay; type: cell-based
[2] = Selectivity index, ratio of IC50 for rat L6 cells to IC50 for chloroquine-sensitive Plasmodium falciparum NF54; type: toxicity, cell-based; settings: read-out: Ratio IC50
[3] = Selectivity index, ratio of IC50 for rat L6 cells to IC50 for chloroquine-resistant Plasmodium falciparum K1; type: toxicity, cell-based; settings: read-out: Ratio IC50
Plasmodium falciparum [4] = assay: microbe, parasite or virus in culture; settings: NF54
Description: Antimalarial activity against chloroquine-sensitive Plasmodium falciparum NF54 after 72 hrs by [3H]hypoxanthine incorporation assay

Plasmodium falciparum [5] = assay: Antimalarial activity against chloroquine-resistant Plasmodium falciparum K1 after 72 hrs by [3H]hypoxanthine incorporation assay; type: functional, organism-based
Trypanosoma cruzi = assay: Antiparasitic activity against Trypanosoma cruzi Tulahuen C2C4 expressing beta-galactosidase infected in rat L6 cells after 96 hrs; type: functional, organism-based; settings: Tulahuen C2C4, L6, 96 h
[6] = test system: Trypanosoma brucei rhodesiense; assay: Antiparasitic activity against Trypanosoma brucei rhodesiense STIB900 bloodstream forms incubated for 70 hrs by Alamar blue assay; type: functional, organism-based; settings: STIB900, 70 h
Leishmania donovani = assay: Antiparasitic activity against Leishmania donovani MHOM/ET/67/L82 axenic amastigotes after 70 hrs by Alamar blue assay; type: functional, organism-based; settings: MHOM/ET/67/L82, 70 h
Mus musculus = assay: Toxicity in Plasmodium berghei ANKA infected Swiss mouse assessed as weight loss at 50 mg/kg, ip qd for 4 days; type: organism-based; design: dose 50 mg/kg, route intraperitoneal; settings: in vivo, 96 h
Plasmodium berghei = assay: Antimalarial activity against Plasmodium berghei ANKA infected in Swiss mouse assessed as reduction parasitaemia at 50 mg/kg, ip qd for 4 days measured 24 hrs after last treatment; type: functional; design: scale not given: the % may be the effect or the level left

Cn1c2nc3ccccc3c-2c(NCCCNC(=O)Nc2ccccc2)c2cc(C(F)(F)F)ccc21
IC50 at 72 h [1]: 1280 nM
selectivity ratio [2]: 313
selectivity ratio [3]: 26.3
pIC50 (Plasmodium falciparum [4]): 8.39
pIC50 (Plasmodium falciparum [5]): 7.31

O=C(Cn1ccnc1[N+](=O)[O-])NCc1ccccc1 [BENZNIDAZOLE]
pIC50 (Trypanosoma cruzi): 5.79

Cn1c2nc3ccccc3c-2c(NCCCN2C(=O)CCSC2c2ccc(Cl)cc2)c2ccccc21 (stereo unspecified)
IC50 at 72 h [1]: 3360 nM
pIC50 [6]: 6.26
selectivity ratio [2]: 64.1
pIC50 (Trypanosoma cruzi): 5.50
selectivity ratio [3]: 86.6
pIC50 (Plasmodium falciparum [4]): 7.28
pIC50 (Plasmodium falciparum [5]): 7.41
pIC50 (Leishmania donovani): 4.89

Cn1c2nc3ccccc3c-2c(NCCCNS(=O)(=O)c2ccc3ccccc3c2)c2ccccc21
IC50 at 72 h [1]: 18.2 nM
selectivity ratio [2]: 1.3
pIC50 (Plasmodium falciparum [4]): 7.85

Cn1c2nc3ccccc3c-2c(NCCCN)c2cc([N+](=O)[O-])ccc21
IC50 at 72 h [1]: 209 nM
selectivity ratio [2]: 18.3
pIC50 (Plasmodium falciparum [4]): 7.94

CN(C)c1ccc(C2SCC(=O)N2CCCNc2c3c4ccccc4nc-3n(C)c3ccccc23)cc1 (stereo unspecified)
IC50 at 72 h [1]: 3550 nM
pIC50 [6]: 5.86
selectivity ratio [2]: 64.7
pIC50 (Trypanosoma cruzi): 5.56
selectivity ratio [3]: 24.8
pIC50 (Plasmodium falciparum [4]): 7.26
pIC50 (Plasmodium falciparum [5]): 6.84
pIC50 (Leishmania donovani): 4.58

CCCCCCCCCCCCCCCCOP(=O)([O-])OCC[N+](C)(C)C [MILTEFOSINE]
pIC50 (Leishmania donovani): 6.44

Cn1c2nc3ccccc3c-2c(NCCCNC(=O)Nc2ccccc2)c2ccccc21
IC50 at 72 h [1]: 1240 nM
pIC50 [6]: 6.22
selectivity ratio [2]: 58.4
pIC50 (Trypanosoma cruzi): 4.97
selectivity ratio [3]: 132
pIC50 (Plasmodium falciparum [4]): 7.67
pIC50 (Plasmodium falciparum [5]): 8.03
pIC50 (Leishmania donovani): 4.01
Activity (Mus musculus): Toxic
Activity (Plasmodium berghei; route intraperitoneal): 22.1%

COc1ccc2c(c1)c(NCCCNC(=O)Nc1ccccc1)c1c3ccccc3nc-1n2C
IC50 at 72 h [1]: 2730 nM
selectivity ratio [2]: 621
selectivity ratio [3]: 1240
pIC50 (Plasmodium falciparum [4]): 8.36
pIC50 (Plasmodium falciparum [5]): 8.66

Cn1c2nc3ccccc3c-2c(NCCCN2C(=O)c3ccccc3SC2c2ccc(Cl)cc2)c2ccccc21 (stereo unspecified)
IC50 at 72 h [1]: 1100 nM
pIC50 [6]: 6.06
selectivity ratio [2]: 41.3
pIC50 (Trypanosoma cruzi): 5.63
selectivity ratio [3]: 51.6
pIC50 (Plasmodium falciparum [4]): 7.58
pIC50 (Plasmodium falciparum [5]): 7.67
pIC50 (Leishmania donovani): 5.01

Cn1c2nc3ccccc3c-2cc2ccccc21 [NEOCRYPTOLEPINE]
IC50 at 72 h [1]: 3190 nM
selectivity ratio [2]: 2
selectivity ratio [3]: 1.9
pIC50 (Plasmodium falciparum [4]): 5.80
pIC50 (Plasmodium falciparum [5]): 5.77

Cn1c2nc3ccccc3c-2c(NCCCNS(=O)(=O)c2ccccc2)c2ccccc21
IC50 at 72 h [1]: 65.2 nM
pIC50 [6]: 6.78
selectivity ratio [2]: 1
pIC50 (Trypanosoma cruzi): 5.80
selectivity ratio [3]: 0.5
pIC50 (Plasmodium falciparum [4]): 7.20
pIC50 (Plasmodium falciparum [5]): 6.91
pIC50 (Leishmania donovani): 4.24

Cn1c2nc3ccccc3c-2c(NCCCCCCNC(=O)Nc2ccccc2)c2ccccc21
IC50 at 72 h [1]: 397 nM
selectivity ratio [2]: 15.4
pIC50 (Plasmodium falciparum [4]): 7.59

Cn1c2nc3ccccc3c-2c(NCCCNC(=S)Nc2ccccc2)c2ccccc21
IC50 at 72 h [1]: 1230 nM
pIC50 [6]: 6.23
selectivity ratio [2]: 135
pIC50 (Trypanosoma cruzi): 5.21
selectivity ratio [3]: 11
pIC50 (Plasmodium falciparum [4]): 8.04
pIC50 (Plasmodium falciparum [5]): 6.95
pIC50 (Leishmania donovani): 4.10
Activity (Mus musculus): Toxic
Activity (Plasmodium berghei; route intraperitoneal): 15.4%

CCCCNC(=O)NCCCNc1c2c3ccccc3nc-2n(C)c2ccccc12
IC50 at 72 h [1]: 1740 nM
selectivity ratio [2]: 16.7
pIC50 (Plasmodium falciparum [4]): 6.98

Cn1c2nc3ccccc3c-2c(NCCCNC(=O)Nc2ccccc2)c2cc(Br)ccc21
IC50 at 72 h [1]: 2830 nM
selectivity ratio [2]: 706
selectivity ratio [3]: 238
pIC50 (Plasmodium falciparum [4]): 8.40
pIC50 (Plasmodium falciparum [5]): 7.92

Cn1c2nc3ccccc3c-2c(NCCCNC(=O)Nc2ccccc2)c2cc(F)ccc21
IC50 at 72 h [1]: 3560 nM
selectivity ratio [2]: 143
selectivity ratio [3]: 11.4
pIC50 (Plasmodium falciparum [4]): 7.60
pIC50 (Plasmodium falciparum [5]): 6.51

Cn1c2nc3ccccc3c-2c(NCCCN2C(=O)CCSC2c2ccc(F)cc2)c2ccccc21 (stereo unspecified)
IC50 at 72 h [1]: 2730 nM
selectivity ratio [2]: 71.6
selectivity ratio [3]: 24.3
pIC50 (Plasmodium falciparum [4]): 7.42
pIC50 (Plasmodium falciparum [5]): 6.95

Cn1c2nc3ccccc3c-2c(NCCCN)c2cc(C(F)(F)F)ccc21
IC50 at 72 h [1]: 924 nM
selectivity ratio [2]: 86.3
pIC50 (Plasmodium falciparum [4]): 7.97

Cn1c2nc3ccccc3c-2c(NCCCN)c2cc(F)ccc21
IC50 at 72 h [1]: 338 nM
selectivity ratio [2]: 6.8
pIC50 (Plasmodium falciparum [4]): 7.30

C[C@@H]1CC[C@H]2[C@@H](C)C(=O)O[C@@H]3O[C@@]4(C)CC[C@@H]1[C@]32OO4 [ARTEMISININ]
pIC50 (Plasmodium falciparum [4]): 8.37
pIC50 (Plasmodium falciparum [5]): 8.55

Cn1c2nc3ccccc3c-2c(NCCCNC(=O)Nc2ccccc2)c2cc([N+](=O)[O-])ccc21
IC50 at 72 h [1]: 2730 nM
selectivity ratio [2]: 1300
selectivity ratio [3]: 91.4
pIC50 (Plasmodium falciparum [4]): 8.68
pIC50 (Plasmodium falciparum [5]): 7.52

Cn1c2nc3ccccc3c-2c(NCCCN)c2cc(Br)ccc21
IC50 at 72 h [1]: 258 nM
selectivity ratio [2]: 24.8
pIC50 (Plasmodium falciparum [4]): 7.98

Cn1c2nc3ccccc3c-2c(NCCCN)c2ccccc21
IC50 at 72 h [1]: 279 nM
selectivity ratio [2]: 3.5
selectivity ratio [3]: 9.4
pIC50 (Plasmodium falciparum [4]): 7.10
pIC50 (Plasmodium falciparum [5]): 7.53

Cn1c2nc3ccccc3c-2c(NCCCNC(=O)Nc2ccccc2)c2cc(Cl)ccc21
IC50 at 72 h [1]: 3080 nM
selectivity ratio [2]: 1400
selectivity ratio [3]: 141
pIC50 (Plasmodium falciparum [4]): 8.66
pIC50 (Plasmodium falciparum [5]): 7.66
Activity (Mus musculus): Toxic
Activity (Plasmodium berghei): inactive

Cn1c2nc3ccccc3c-2c(NCCCN)c2cc(Cl)ccc21
IC50 at 72 h [1]: 269 nM
selectivity ratio [2]: 22.8
pIC50 (Plasmodium falciparum [4]): 7.93

Cn1c2nc3ccccc3c-2c(NCCCNC(=O)c2cccs2)c2ccccc21
IC50 at 72 h [1]: 4460 nM
selectivity ratio [2]: 17.3
pIC50 (Plasmodium falciparum [4]): 6.59

COc1ccc2c(c1)c(NCCCN)c1c3ccccc3nc-1n2C
IC50 at 72 h [1]: 383 nM
selectivity ratio [2]: 5.1
pIC50 (Plasmodium falciparum [4]): 7.13

Cn1c2nc3ccccc3c-2c(NCCCN2C(=O)CSC2c2ccc(Cl)cc2)c2ccccc21 (stereo unspecified)
IC50 at 72 h [1]: 3470 nM
selectivity ratio [2]: 54.4
selectivity ratio [3]: 24.2
pIC50 (Plasmodium falciparum [4]): 7.19
pIC50 (Plasmodium falciparum [5]): 6.84

Cn1c2nc3ccccc3c-2c(Cl)c2ccccc21 [11-CHLORONEOCRYPTOLEPINE]
IC50 at 72 h [1]: 1460 nM
selectivity ratio [2]: 0.7
selectivity ratio [3]: 0.7
pIC50 (Plasmodium falciparum [4]): 5.69
pIC50 (Plasmodium falciparum [5]): 5.70

Cn1c2nc3ccccc3c-2c(NCCCCCCN)c2ccccc21
IC50 at 72 h [1]: 693 nM
selectivity ratio [2]: 7.1
pIC50 (Plasmodium falciparum [4]): 7.01
